Reference: ChEMBL document CHEMBL1667844, “Synthesis, structure-activity relationships and preliminary antitumor evaluation of benzothiazole-2-thiol derivatives as novel apoptosis inducers” (Bioorg Med Chem Lett, 2011)

Key:
[1] = system: MCF7; assay: Cytotoxicity against human MCF7 cells after 48 hrs by MTT assay; format: functional, cell-based; settings: MCF7, 48 h
[2] = system: HepG2; assay: Cytotoxicity against human HepG2 cells after 48 hrs by MTT assay; format: functional, cell-based; settings: HepG2, 48 h
[3] = system: SK-BR-3; assay: Cytotoxicity against human SK-BR-3 cells after 48 hrs by MTT assay; format: functional, cell-based; settings: SK-BR-3, 48 h
[4] = system: HCT-116; assay: Cytotoxicity against human HCT116 cells after 48 hrs by MTT assay; format: functional, cell-based; settings: HCT-116, 48 h
[5] = system: PC-3; assay: Cytotoxicity against human PC3 cells after 48 hrs by MTT assay; format: functional, cell-based; settings: PC-3, 48 h
[6] = system: HepG2; assay: Induction of apoptosis in human HepG2 cells assessed as morphological changes after 24 hrs using propidium iodide staining by fluorescence microscopic analysis; format: functional, cell-based
[7] = system: HepG2; assay: Induction of apoptosis in human HepG2 cells assessed as DNA content at sub-G1 phase at 1.2 uM after 24 hrs using propidium iodide staining by flow cytometry (reference value: 4.3 %); format: functional
[8] = system: A549; assay: Cytotoxicity against human A549 cells after 48 hrs by MTT assay; format: functional, cell-based; settings: A549, 48 h
[9] = system: A-375; assay: Cytotoxicity against human A375 cells after 48 hrs by MTT assay; format: functional, cell-based; settings: A-375, 48 h
[10] = system: SK-OV-3; assay: Cytotoxicity against human SKOV3 cells after 48 hrs by MTT assay; format: functional, cell-based; settings: SK-OV-3, 48 h
[11] = system: BXPC-3; assay: Cytotoxicity against human BxPC3 cells after 48 hrs by MTT assay; format: functional, cell-based; settings: BXPC-3, 48 h
[12] = system: MDA-MB-468; assay: Cytotoxicity against human MDA-MB-468 cells after 48 hrs by MTT assay; format: functional, cell-based; settings: MDA-MB-468, 48 h
[13] = system: HepG2; assay: Induction of apoptosis in human HepG2 cells assessed as DNA content at sub-G1 phase at 0.3 uM after 24 hrs using propidium iodide staining by flow cytometry (reference value: 4.3 %); format: functional
[14] = system: HeLa; assay: Cytotoxicity against human HeLa cells after 48 hrs by MTT assay; format: functional, cell-based
[15] = system: HepG2; assay: Induction of apoptosis in human HepG2 cells assessed as DNA content at sub-G1 phase at 0.6 uM after 24 hrs using propidium iodide staining by flow cytometry (reference value: 4.3 %); format: functional
[16] = system: SW480; assay: Cytotoxicity against human SW480 cells after 48 hrs by MTT assay; format: functional, cell-based; settings: SW480, 48 h
[17] = system: SW-620; assay: Cytotoxicity against human SW620 cells after 48 hrs by MTT assay; format: functional, cell-based; settings: SW-620, 48 h
[18] = system: A-431; assay: Cytotoxicity against human A431 cells after 48 hrs by MTT assay; format: functional, cell-based; settings: A-431, 48 h
[19] = system: HepG2; assay: Induction of apoptosis in human HepG2 cells assessed as DNA content at sub-G1 phase after 24 hrs using propidium iodide staining by flow cytometry; format: functional, cell-based

COc1ccc(CNC(=O)CSc2nc3ccc(NC(=O)c4ccc(Cl)cc4)cc3s2)cc1
IC50 [1]: 19.2 µM
IC50 [2]: 7.4 µM

CNC(=O)CSc1nc2ccc(NC(=O)c3ccc([N+](=O)[O-])cc3)cc2s1
IC50 [1]: > 100 µM
IC50 [2]: > 100 µM

CNC(=O)CSc1nc2ccc(NC(=O)c3ccc(Cl)cc3)cc2s1
IC50 [1]: 29.4 µM
IC50 [2]: 15.3 µM

O=C(CSc1nc2ccc(NC(=O)c3ccccc3)cc2s1)NCc1ccccc1
IC50 [1]: 35.6 µM
IC50 [2]: 34.2 µM

CNC(=O)CSc1nc2ccc(NC(=O)c3ccccc3OC)cc2s1
IC50 [1]: 23.4 µM
IC50 [2]: 18.5 µM

COc1ccccc1C(=O)Nc1ccc2nc(SCC(=O)NCc3ccc(Cl)cc3)sc2c1
IC50 [3]: 1.2 µM
IC50 [4]: 1.5 µM
IC50 [5]: 4.6 µM
IC50 [1]: 1.1 µM
Activity [6]: Dose-dependent effect
Activity [7]: 55.4%
IC50 [8]: 2 µM
IC50 [9]: 2.2 µM
IC50 [10]: 6 µM
IC50 [11]: 4.4 µM
IC50 [12]: 2.3 µM
IC50 [2]: 0.6 µM
Activity [13]: 19.2%
IC50 [14]: 4.2 µM
Activity [15]: 35.9%
IC50 [16]: 5.4 µM
IC50 [17]: 4.2 µM
IC50 [18]: 1.1 µM
Activity [19]: Dose-dependent effect

COc1ccccc1C(=O)Nc1ccc2nc(SCC(=O)NCc3ccccc3)sc2c1
IC50 [1]: 17.2 µM
IC50 [2]: 8 µM

CNC(=O)CSc1nc2ccc(NC(C)=O)cc2s1
IC50 [1]: > 100 µM
IC50 [2]: > 100 µM

O=C(CSc1nc2ccc(NC(=O)c3ccccc3)cc2s1)NCc1ccc(Cl)cc1
IC50 [1]: 33.7 µM
IC50 [2]: 30.1 µM

CC(=O)Nc1ccc2nc(SCC(=O)NCc3ccccc3)sc2c1
IC50 [1]: 17.6 µM
IC50 [2]: 9.2 µM

COc1ccc(CNC(=O)CSc2nc3ccc(NC(C)=O)cc3s2)cc1
IC50 [1]: 20.5 µM
IC50 [2]: 11.2 µM

COc1ccc(CNC(=O)CSc2nc3ccc(NC(=O)c4ccccc4OC)cc3s2)cc1
IC50 [1]: 9.3 µM
IC50 [2]: 2.1 µM

COc1ccc(CNC(=O)CSc2nc3ccc(NC(=O)c4ccccc4)cc3s2)cc1
IC50 [1]: 21.2 µM
IC50 [2]: 12.7 µM

CNC(=O)CSc1nc2ccc(NC(=O)c3ccccc3)cc2s1
IC50 [1]: 34.4 µM
IC50 [2]: 26.5 µM

O=C(CSc1nc2ccc(NC(=O)c3ccc([N+](=O)[O-])cc3)cc2s1)NCc1ccc(Cl)cc1
IC50 [1]: > 100 µM
IC50 [2]: > 100 µM

O=C(CSc1nc2ccc(NC(=O)CCl)cc2s1)NCc1ccccc1
IC50 [3]: 8.8 µM
IC50 [4]: 1.3 µM
IC50 [5]: 6.1 µM
IC50 [1]: 4.2 µM
IC50 [8]: 4 µM
IC50 [9]: 1.8 µM
IC50 [10]: 4.8 µM
IC50 [11]: 6.6 µM
IC50 [12]: 4.1 µM
IC50 [2]: 1.1 µM
IC50 [14]: 4.9 µM
IC50 [16]: 5.2 µM
IC50 [17]: 1.2 µM
IC50 [18]: 4.4 µM

CNC(=O)CSc1nc2ccc(NC(=O)CCl)cc2s1
IC50 [1]: 5 µM
IC50 [2]: 1.9 µM

O=C(CSc1nc2ccc(NC(=O)CCl)cc2s1)NCc1ccc(Cl)cc1
IC50 [1]: 4.9 µM
IC50 [2]: 1.8 µM

O=C(CSc1nc2ccc(NC(=O)c3ccc(Cl)cc3)cc2s1)NCc1ccccc1
IC50 [1]: 25.9 µM
IC50 [2]: 25.4 µM

O=C(CSc1nc2ccc(NC(=O)c3ccc([N+](=O)[O-])cc3)cc2s1)NCc1ccccc1
IC50 [1]: > 100 µM
IC50 [2]: > 100 µM

COc1ccc(CNC(=O)CSc2nc3ccc(NC(=O)CCl)cc3s2)cc1
IC50 [1]: 5.1 µM
IC50 [2]: 2 µM

CC(=O)Nc1ccc2nc(SCC(=O)NCc3ccc(Cl)cc3)sc2c1
IC50 [1]: 10.2 µM
IC50 [2]: 6.7 µM

COc1ccc(CNC(=O)CSc2nc3ccc(NC(=O)c4ccc([N+](=O)[O-])cc4)cc3s2)cc1
IC50 [1]: > 100 µM
IC50 [2]: > 100 µM

O=C(CSc1nc2ccc(NC(=O)c3ccc(Cl)cc3)cc2s1)NCc1ccc(Cl)cc1
IC50 [1]: 29.3 µM
IC50 [2]: 17.8 µM
